Data from patent US11845747B2, “Ester and carbonate pyrimidine compounds as JAK kinase inhibitors” (priority 2019, dated 2023).

How the values were obtained:
[1] = tested on: IL-2 stimulated STAT5 phosphorylation in Tall-1 human T cell line (JAK1/3); assay: Inhibition of IL-2 stimulated pSTAT5 in Tall-1 T cells; format: cell-based; conditions: IL-2 300 ng/mL, AlphaLisa, read-out: Tall-1 IL2 pSTAT5 (pIC50) (converted)
Experimental: Assay 2: Inhibition of IL-2 Stimulated pSTAT5 in Tall-1 T Cells
The potency of test compounds for inhibition of interleukin-2 (IL-2) stimulated STATS phosphorylation was measured in the Tall-1 human T cell line (DSMZ) using AlphaLisa. Because IL-2 signals through JAK1/3, this assay provides a measure of JAK1/3 cellular potency.
Phosphorylated STAT5 was measured via the AlphaLISA SureFire Ultra pSTAT5 (Tyr694/699) kit (PerkinElmer). Human T cells from the Tall-1 cell line were cultured in a 37° C., 5% CO2 humidified incubator in RPMI (Life Technologies) supplemented with 15% Heat Inactivated Fetal Bovine Serum (FBS, Life Technologies), 2 mM Glutamax (Life Technologies), 25 mM HEPES (Life Technologies) and 1× Pen/Strep (Life Technologies). Compounds were serially diluted in DMSO and dispensed acoustically to empty wells. Assay media (phenol red-free DMEM (Life Technologies) supplemented with 10% FBS (ATCC)) was dispensed (4 μL/well) and plates shaken at 900 rpm for 10 mins. Cells were seeded at 45,000 cells/well in assay media (4 μL/well), and incubated at 37° C., 5% CO2 for 1 hour, followed by the addition of IL-2 (R&D Systems; final concentration 300 ng/mL) in pre-warmed assay media (4 μL) for 30 minutes. After cytokine stimulation, cells were lysed with 6 ul of 3× AlphaLisa Lysis Buffer (PerkinElmer) containing 1× PhosStop and Complete tablets (Roche). The lysate was shaken at 900 rpm for 10 minutes at room temperature (RT). Phosphorylated STAT5 was measured via the pSTAT5 AlphaLisa kit (PerkinElmer). Freshly prepared acceptor bead mixture was dispensed onto lysate (5 μL) under green filtered <100 lux light. Plates were shaken at 900 rpm for 2 mins, briefly spun down, and incubated for 2 hrs at RT in the dark. Donor beads were dispensed (5 μL) under green filtered <100 lux light. Plates were shaken at 900 rpm for 2 minutes, briefly spun down, and incubated overnight at RT in the dark. Luminescence was measured with excitation at 689 nm and emission at 570 nm using an EnVision plate r reader (PerkinElmer) under green filtered <100 lux light.
To determine the inhibitory potency of test compounds in response to IL-2, the average emission intensity of beads bound to pSTAT5 was measured in a human T cell line. IC50 values were determined from analysis of the inhibition curves of signal intensity versus compound concentration. Data are expressed as pIC50 (negative decadic logarithm IC50) values (mean±standard deviation).

JAK3 = target: T1, JAK3 (Homo sapiens, UniProt P52333); assay: Biochemical LanthaScreen JAK3 kinase assay; conditions: Km ATP 1.6 μM; pKi from pIC50 by Cheng-Prusoff; read-out: JAK 3 (pKi) (converted)
T1 construct: GST; purchased Life Technologies
T1 sequence (P52333 1-1124): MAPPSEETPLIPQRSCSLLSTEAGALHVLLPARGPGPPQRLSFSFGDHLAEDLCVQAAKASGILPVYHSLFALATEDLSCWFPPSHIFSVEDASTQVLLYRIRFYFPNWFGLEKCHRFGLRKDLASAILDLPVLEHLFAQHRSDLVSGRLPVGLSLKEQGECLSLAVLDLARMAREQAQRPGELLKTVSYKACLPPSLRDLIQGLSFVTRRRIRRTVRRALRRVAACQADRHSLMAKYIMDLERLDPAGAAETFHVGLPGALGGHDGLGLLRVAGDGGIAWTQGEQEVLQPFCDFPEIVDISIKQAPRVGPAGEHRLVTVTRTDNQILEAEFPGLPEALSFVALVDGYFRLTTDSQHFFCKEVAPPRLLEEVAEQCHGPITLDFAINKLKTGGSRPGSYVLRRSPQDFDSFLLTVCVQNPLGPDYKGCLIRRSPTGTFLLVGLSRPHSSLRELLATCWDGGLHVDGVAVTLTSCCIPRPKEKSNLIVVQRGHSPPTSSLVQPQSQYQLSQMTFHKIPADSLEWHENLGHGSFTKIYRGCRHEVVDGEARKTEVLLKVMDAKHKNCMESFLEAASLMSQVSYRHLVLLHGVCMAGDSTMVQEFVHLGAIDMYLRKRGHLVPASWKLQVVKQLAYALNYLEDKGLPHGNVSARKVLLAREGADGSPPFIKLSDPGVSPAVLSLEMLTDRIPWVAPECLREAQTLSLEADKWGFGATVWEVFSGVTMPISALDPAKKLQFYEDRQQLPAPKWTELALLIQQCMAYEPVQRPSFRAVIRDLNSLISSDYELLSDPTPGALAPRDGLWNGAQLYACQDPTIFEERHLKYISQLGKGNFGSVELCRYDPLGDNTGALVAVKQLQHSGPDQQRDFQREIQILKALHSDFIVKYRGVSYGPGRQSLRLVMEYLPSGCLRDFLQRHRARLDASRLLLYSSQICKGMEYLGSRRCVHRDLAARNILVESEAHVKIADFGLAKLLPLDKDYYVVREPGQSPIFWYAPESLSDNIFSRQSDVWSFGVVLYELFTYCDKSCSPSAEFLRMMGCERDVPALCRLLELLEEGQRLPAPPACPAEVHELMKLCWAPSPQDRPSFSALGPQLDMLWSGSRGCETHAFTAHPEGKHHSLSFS
Experimental: Assay 1: Biochemical JAK and Tyk2 Kinase Assays A panel of four LanthaScreen JAK biochemical assays (JAK1, 2, 3 and Tyk2) were carried in a common kinase reaction buffer (50 mM HEPES, pH 7.5, 0.01% Brij-35, 10 mM MgCl2, and 1 mM EGTA). Recombinant GST-tagged JAK enzymes and a GFP-tagged STAT1 peptide substrate were obtained from Life Technologies. Serially or discretely diluted compounds were pre-incubated with each of the four JAK enzymes and the substrate in white 384-well microplates (Corning) at ambient temperature for 1 h. ATP was subsequently added to initiate the kinase reactions in 10 μL total volume, with 1% DMSO. […] Kinase reactions were allowed to proceed for 1 hour at ambient temperature before a 10 μL preparation of EDTA (10 mM final concentration) and Tb-anti-pSTAT1 ([…]) antibody (Life Technologies, 2 nM final concentration) in TR-FRET dilution buffer (Life Technologies) was added. The plates were allowed to incubate at ambient temperature for 1 h before being read on the EnVision reader (Perkin Elmer). Emission ratio signals (520 nm/495 nm) were recorded and utilized to calculate the percent inhibition values based on DMSO and background controls. For dose-response analysis, percent inhibition data were plotted vs. compound concentrations, and IC50 values were determined from a 4-parameter robust fit model with the Prism software (GraphPad Software). Results were expressed as pIC50 (negative logarithm of IC50) and subsequently converted to pKi (negative logarithm of dissociation constant, Ki) using the Cheng-Prusoff equation.

Row | SMILES | IC50 [1] [nM] | Ki (JAK3) [nM]
1 | CCS(=O)(=O)N1[C@@H]2CCC[C@H]1C[C@H](N(C)c1nc(COC(C)=O)c(F)c(Nc3cc(C)[nH]n3)n1)C2 [Compound 1, (2-(((1R,3s,5S)-9-(ethylsulfonyl)-9-azabicyclo[3.3.1]nonan-3-yl)(methyl)amino)-5-fluoro-6-((5-methyl-1H-pyrazol-3-yl)amino)pyrimidin-4-yl)methyl acetate] | ≤ 10 | 0.1 to 1
2 | CCC(=O)OCc1nc(N(C)[C@@H]2C[C@H]3CCC[C@@H](C2)N3S(=O)(=O)CC)nc(Nc2cc(C)[nH]n2)c1F [Compound 2, (2-(((1R,3s,5S)-9-(ethylsulfonyl)-9-azabicyclo[3.3.1]nonan-3-yl)(methyl)amino)-5-fluoro-6-((5-methyl-1H-pyrazol-3-yl)amino)pyrimidin-4-yl)methyl propionate] | ≤ 10 | 0.1 to 1
3 | CCCC(=O)OCc1nc(N(C)[C@@H]2C[C@H]3CCC[C@@H](C2)N3S(=O)(=O)CC)nc(Nc2cc(C)[nH]n2)c1F [Compound 3, (2-(((1R,3s,5S)-9-(ethylsulfonyl)-9-azabicyclo[3.3.1]nonan-3-yl)(methyl)amino)-5-fluoro-6-((5-methyl-1H-pyrazol-3-yl)amino)pyrimidin-4-yl)methyl butyrate] | ≤ 10 | 1 to 10
4 | CCCCC(=O)OCc1nc(N(C)[C@@H]2C[C@H]3CCC[C@@H](C2)N3S(=O)(=O)CC)nc(Nc2cc(C)[nH]n2)c1F [Compound 4, (2-(((1R,3s,5S)-9-(ethylsulfonyl)-9-azabicyclo[3.3.1]nonan-3-yl)(methyl)amino)-5-fluoro-6-((5-methyl-1H-pyrazol-3-yl)amino)pyrimidin-4-yl)methyl pentanoate] | ≤ 10 | 1 to 10
5 | CCCCCCC(=O)OCc1nc(N(C)[C@@H]2C[C@H]3CCC[C@@H](C2)N3S(=O)(=O)CC)nc(Nc2cc(C)[nH]n2)c1F [Compound 5, (2-(((1R,3s,5S)-9-(ethylsulfonyl)-9-azabicyclo[3.3.1]nonan-3-yl)(methyl)amino)-5-fluoro-6-((5-methyl-1H-pyrazol-3-yl)amino)pyrimidin-4-yl)methyl heptanoate] | ≤ 10 | 10 to 100
6 | CCS(=O)(=O)N1[C@@H]2CCC[C@H]1C[C@H](N(C)c1nc(COC(=O)OC3CCCCC3)c(F)c(Nc3cc(C)[nH]n3)n1)C2 [Compound 6, cyclohexyl ((2-(((1R,3s,5S)-9-(ethylsulfonyl)-9-azabicyclo[3.3.1]nonan-3-yl)(methyl)amino)-5-fluoro-6-((5-methyl-1H-pyrazol-3-yl)amino)pyrimidin-4-yl)methyl) carbonate] | 10 to 31.6 | 10 to 100
7 | CCS(=O)(=O)N1[C@@H]2CCC[C@H]1C[C@H](N(C)c1nc(COC(=O)C3CCOCC3)c(F)c(Nc3cc(C)[nH]n3)n1)C2 [Compound 7, (2-(((1R,3s,5S)-9-(ethylsulfonyl)-9-azabicyclo[3.3.1]nonan-3-yl)(methyl)amino)-5-fluoro-6-((5-methyl-1H-pyrazol-3-yl)amino)pyrimidin-4-yl)methyl tetrahydro-2H-pyran-4-carboxylate] | ≤ 10 | 0.1 to 1
8 | CCS(=O)(=O)N1[C@@H]2CCC[C@H]1C[C@H](N(C)c1nc(COC(=O)OC(C)C)c(F)c(Nc3cc(C)[nH]n3)n1)C2 [Compound 8, (2-(((1R,3s,5S)-9-(ethylsulfonyl)-9-azabicyclo[3.3.1]nonan-3-yl)(methyl)amino)-5-fluoro-6-((5-methyl-1H-pyrazol-3-yl)amino)pyrimidin-4-yl)methyl isopropyl carbonate] | ≤ 10 | 1 to 10
9 | CCS(=O)(=O)N1[C@@H]2CCC[C@H]1C[C@H](N(C)c1nc(COC(=O)OC3CCOCC3)c(F)c(Nc3cc(C)[nH]n3)n1)C2 [Compound 9, (2-(((1R,3s,5S)-9-(ethylsulfonyl)-9-azabicyclo[3.3.1]nonan-3-yl)(methyl)amino)-5-fluoro-6-((5-methyl-1H-pyrazol-3-yl)amino)pyrimidin-4-yl)methyl (tetrahydro-2H-pyran-4-yl) carbonate] | ≤ 10 | 1 to 10
10 | CCS(=O)(=O)N1[C@@H]2CCC[C@H]1C[C@H](N(C)c1nc(CO)c(F)c(Nc3cc(C)[nH]n3)n1)C2 [Compound M, (2-(((1R,3s,5S)-9-(ethylsulfonyl)-9-azabicyclo[3.3.1]nonan-3-yl)(methyl)amino)-5-fluoro-6-((5-methyl-1H-pyrazol-3-yl)amino)pyrimidin-4-yl)methanol] | ≤ 10 | 0.1 to 1
